Several values for one entry are separate records, joined by “and”; a condition that tells them apart may be missing. Equal values may be shown once.
How the values were obtained:
neuronal cultures = test: oxygen-glucose deprivation (OGD)-induced lactate dehydrogenase (LDH) release in neuronal cultures; format: cell-based; settings: for ED50 for xenon, OGD-induced LDH release: 75 minutes OGD, 6 hours of recovery, xenon concentration % atm, mean +/- SEM
Method: The effect of mild hypothermia on the neuroprotective effect of xenon (LDH release against xenon concentration, % atm) is shown in FIG. 7. […] Cooling by 4 degrees greatly enhances the potency of xenon in blocking LDH release. […] (red), or at 33° C. (blue). […] Neuronal injury is expressed as a percentage of the maximal LDH release after 75 minutes of OGD and 6 hours of recovery in the absence of either xenon or hypothermia. Points represent mean values, with error bars indicating standard errors.
From the slope of such a plot the enthalpy change of the process can be calculated, its size being a measure of the temperature dependence. The data in red show the effect of temperature on LDH release in the absence of xenon. The reduction of release as the temperature is reduced is expected but modest. […] Hypothermia therefore appears to greatly enhance the neuroprotective effects of xenon.

[1] = tested on: p7 Sprague-Dawley rat pups; test: 7-day-old rat model of focal HI, treatment 4 h post-insult, cresyl violet histology of apoptotic, necrotic and viable cells (Example 2); format: in vivo
Text: p7 Sprague-Dawley rat pups (weighing between 10 and 14 g) from Harlan, U.K. were subjected to a previously described model of HI injury (Levine, 1960; Rice et al, 1981). In brief, rat pups were anaesthetised with 2% isoflurane before undergoing permanent unilateral ligation of the right common carotid artery, using a midline neck incision and 5.0 silk suture. Once surgery was complete, pups recovered from the anaesthesia and were then returned to the dam until the time of experimentation.
1 hr after surgery, pups were exposed to hypoxia by placing them into purpose-built, airtight chambers that were partially submerged in a 37° C. water bath (FIG. 9). […] Hypoxia was induced by a continuous flow of humidified 8% oxygen, balanced with nitrogen, and this mixture was monitored every 15 minutes by a Datex Ohmeda (Bradford, U.K.). (All gases were supplied by BOC.)
Following HI, pups were returned to the dam for 4 hrs to recover, after which time they were subjected to 90 minutes of one of the experimental interventions below. […] No significant difference existed between the two time periods and thus 4 h post-insult was chosen as the time to apply the intervention, as it was thought to be the most clinically relevant.
Pups were returned to their mothers until sacrifice at 16, 24 and 48 h following treatment (Northington et al, 2001) (FIG. 10).
The same experimental paradigm was followed for treatment with xenon, but instead of hypothermia, the water bath was maintained at 37° C. and the gas mixture was changed to 25% oxygen and 75% xenon for 90 minutes. Gas was delivered into a purpose-built, closed system to minimise xenon leakage (FIG. 9). Once again, the pups were returned to their mothers until sacrifice.
In the combination paradigm, the rats underwent both hypothermia and xenon concurrently for 90 minutes. Again, the pups were placed in airtight chambers, but on this occasion, their temperatures were maintained at 35° C. and the gas mixture consisted of 25% oxygen, only 20% xenon and balanced nitrogen. This temperature and xenon concentration was shown in preliminary experiments, to confer no neuroprotective benefit to the developing brain when used independently. Thus, by using these values, any neuroprotective benefit at all is indicative of synergy between the two agents. Following treatment, pups were returned to their mothers until sacrifice.
Neuronal injury was assessed by histological analysis of paraffin brain slices stained with cresyl violet. Cresyl violet is a basic stain that binds to acidic components of neuronal cytoplasm such as RNA-rich ribosomes, and also the nuclei and nucleoli of nerve cells.
Each experimental group consisted of three time groups (16, 24, 48 h), and each time group contained three animals, (thus there were nine animals in total for each experimental group). Three slides per animal were chosen from the area of the brain that was −3.6 mm from the bregma (FIG. 11). Slides were then sorted into time groups and the examiner was blinded to the intervention.
Two areas from the ipsilateral side of each brain were analysed using a BX60 light microscope (Olympus, Southall, U.K.)—one in the cortex and one in the gyrus of the hippocampus (FIG. 11). A 40× objective lens with a grid was used to count the total number of cells that appeared in the grid. Cells were scored as either viable, apoptotic, or necrotic based on their morphological appearance, and the percentage of each cell type was noted down for each of the brain areas. An Axiocam digital camera (Zeiss, Göttingen, Germany) was used along with the microscope to take photomicrographs of the brain slices.
The criteria for assigning cells to each category was as follows (FIG. 12): • 1. Cells undergoing either type of cell death (apoptosis or necrosis) took up the cresyl violet stain more intensely than viable cells, which were regularly shaped with pale cytoplasm, and a clearly visible, darker nucleus. • 2. […]

[2] = xenon dissolved or dispersed in lipid emulsion; format: physicochemical; settings: 20° C. and normal pressure
Method: It has been established that appreciable amounts of xenon maybe added to a lipid emulsion. Even by the simplest means, at 20° C. and normal pressure, xenon can be dissolved or dispersed in concentrations of 0.2 to 10 ml or more per ml of emulsion. The concentration of dissolved gas is dependent on a number of factors, including temperature, pressure and the concentration of lipid.

[3] = tested on: Seven day old postnatal Sprague-Dawley rats; test: Neonatal asphyxia model, xenon during or 2 h after hypoxia (Example 1); format: in vivo, rat
Method: Seven day old postnatal Sprague-Dawley rats underwent right common carotid artery ligation under surgical anaesthesia (1%-1.5% isoflurane in pure oxygen). After ligation, the animals were returned to their mothers and placed in a specially designed area with constant of room temperature (23° C.) and humidity (48%). One hour after surgery, neonatal rats were placed in specially designed chamber with 8% oxygen combined with 0, 20, 40, 60 or 70% Xenon (with nitrogen making up the balance) for 90 min at 37° C. (temperature kept by water bath running outside chambers). At post-experimental day 7, rats (14 day old) were killed and their brains removed. The ratio of right hemisphere weight against left (R/L ratio) was calculated. Rat pups in some groups were allowed to live up to 30 days of postnatal age, at which time their neuromotor function and co-ordination were assessed with established protocols (Neuromotor testing and Rotarod testing).
The concentration-dependence of xenon neuroprotection (ratio right hemisphere weight/left against xenon concentration) is shown in FIG. 4. […] Control animals were subjected to carotid ligation but no hypoxia was given. Results are mean±SEM (n=5−8). * P<0.01 vs 8% O2.
At postnatal day 7 the right carotid artery was ligated and rat pups were exposed to a hypoxic environment (8% oxygen+70% xe and balance with nitrogen) for 90 min. Thirty days after the insult, rats were evaluated for neuromotor function (A) using a panel that included assays of prehensile traction, strength, and balance beam performance (graded on a 0-9 scale) and (B) balance on a Rotarod, a standard test of balance and neuromotor function. The data point from an individual rat is the sum of three tests. The horizontal bars indicate the median for each group.
The neuroprotective effect (ratio of right hemisphere/left) observed with N2 and xenon respectively is shown in FIG. 6, when xenon is administered 2 hours post HI insult. […]

[4] = 20% xenon alone, 37° C., cortex, 16 h, mean±SD (n=3)
[5] = 75% xenon, 37° C., 90 min, cortex, 16 h, mean±SD (n=3)
[6] = 75% xenon, 37° C., 90 min, gyrus, 16 h, mean±SD (n=3)
[7] = combination 20% xenon + 35° C. hypothermia, cortex, 16 h, mean±SD (n=3)

Q: Which results are given for [Xe] [xenon]?
A: temperature dependence of LDH release (van't Hoff plot) (neuronal cultures; 12.5% xenon present): very large and unexpected; ED50 for xenon, OGD-induced LDH release (neuronal cultures; 33° C.): 11.5+/−2.0%; ED50 for xenon, OGD-induced LDH release (neuronal cultures; 37° C.): 35.9+/−2.15%; neuroprotection ([1]; 20% xenon alone, 37° C.): no neuroprotective effect; percentage of apoptosis [1, 4]: 36%±5.7% and 35.8%±5.7%; percentage of viability [1, 4]: 51%±7.8%; apoptosis (percentage of total cell number) [1, 5]: 8.5%±1.6%; viable cell count (percentage of total cell number) [1, 5]: 80.6%±0.2%; apoptosis (percentage of total cell number) [1, 6]: 13.9%±2.4%; viable cell count (percentage of total cell number) [1, 6]: 77.1%±3.3%; anti-necrosis ([1]; 75% xenon, 16 and 24 h groups): not anti-necrotic; anti-apoptosis compared to positive control animals ([1]; 75% xenon, 24 and 48 h groups, cortex and gyrus): statistically significant anti-apoptosis; percentage of viable cells vs. positive controls ([1]; 75% xenon, 24 h, cortex and gyrus): significant increase in the percentage of viable cells; necrosis (percentage of total cell number) ([1]; 75% xenon, cortex, 48 h, mean±SD (n=3)): 10.7%±0.4%; anti-necrosis ([1]; 75% xenon, gyrus, 48 h): not however anti-necrotic; neuroprotection ([1]; combination 20% xenon + 35° C. hypothermia, both areas of the brain, 16, 24 and 48 h): profound synergistic neuroprotection; apoptosis (percentage of total cell number) [1, 7]: 7.2%±2%; viable cells (percentage of total cell number) [1, 7]: 82.3%±4.9%; type of protection ([1]; combination 20% xenon + 35° C. hypothermia, gyrus, 24 h): anti-necrotic as well as anti-apoptotic protection; concentration of xenon dissolved or dispersed in lipid emulsion [2]: 0.2 to 10 ml per ml of emulsion; concentration-dependence of xenon neuroprotection (ratio right hemisphere weight/left) ([3]; 0, 20, 40, 60 or 70% xenon with 8% oxygen for 90 min at 37° C., brains at 14 days): Neuroprotection is evident even at sub-anaesthetic concentrations; neuroprotective effect (ratio of right hemisphere/left) ([3]; 70% Xe+30% O2 for 90 min, given 2 hours after the end of the hypoxic period): effective in providing neuroprotection; gross anatomical appearance of brain slices ([3]; 70% xenon breathed during the 90 min hypoxic period): look close to normal
